Results: paper PMC8115619, “Generation of a chemical genetic model for JAK3” (Scientific Reports, 2021)

Assays:
Format in all cases: biochemical
MST3 = MST3 (Homo sapiens, UniProt Q9Y6E0); assay: Selectivity screen MST3; conditions: 1 µM inhibitor, mean
Protocol: (§1) For the in vitro kinase assay, JAK3 (5–20 mU diluted in 50 mM Tris pH 7.5, 0.1 mM EGTA, 0.05% β-mercaptoethanol, 1 mg/ml BSA) was assayed against PDKtide ([…]) in a final volume of 25.5 µl containing 50 mM Tris pH 7.5, 0.1 mM EGTA, 0.05% β-mercaptoethanol, 100 µM substrate peptide, 10 mM magnesium acetate and 0.02 mM [33P-γ-ATP] (50–1000 cpm/pmole) and incubated for 30 min at room temperature. Assays were started by the addition of the ATP and stopped by addition of 5 µl of 0.5 M (3%) orthophosphoric acid and then harvested onto P81 Unifilter plates with a wash buffer of 50 mM orthophosphoric acid. To determine the Km for ATP, assays were run using 1, 5, 10, 20, 50, 100, 200, 400, 500 μM ATP and Km derived by non-linear regression fitting to the Michaelis–Menten equation v = Vmax[S]/(Km + [S]). IC50 values for inhibitors via non-linear regression using a parameter model: Y = Bottom + (Top–Bottom)/(1 + (IC50/X)^HillSlope). Non-linear regression was carried out in Prism (version 8). In vitro selectivity screen was carried out as described previously.

IRAK1 = IRAK1 (Homo sapiens, UniProt P51617); assay: Selectivity screen IRAK1; conditions: 1 µM inhibitor, mean
Protocol: as §1

DYRK3 = DYRK3 (Homo sapiens, UniProt O43781); assay: Selectivity screen DYRK3; conditions: 1 µM inhibitor, mean
Protocol: as §1

MLK1 = MLK1 (Homo sapiens, UniProt P80192); assay: Selectivity screen MLK1; conditions: 1 µM inhibitor, mean
Protocol: as §1

MLK3 = MLK3 (Homo sapiens, UniProt Q16584); assay: Selectivity screen MLK3; conditions: 1 µM inhibitor, mean
Chain of MLK3 (Q16584 whole entry): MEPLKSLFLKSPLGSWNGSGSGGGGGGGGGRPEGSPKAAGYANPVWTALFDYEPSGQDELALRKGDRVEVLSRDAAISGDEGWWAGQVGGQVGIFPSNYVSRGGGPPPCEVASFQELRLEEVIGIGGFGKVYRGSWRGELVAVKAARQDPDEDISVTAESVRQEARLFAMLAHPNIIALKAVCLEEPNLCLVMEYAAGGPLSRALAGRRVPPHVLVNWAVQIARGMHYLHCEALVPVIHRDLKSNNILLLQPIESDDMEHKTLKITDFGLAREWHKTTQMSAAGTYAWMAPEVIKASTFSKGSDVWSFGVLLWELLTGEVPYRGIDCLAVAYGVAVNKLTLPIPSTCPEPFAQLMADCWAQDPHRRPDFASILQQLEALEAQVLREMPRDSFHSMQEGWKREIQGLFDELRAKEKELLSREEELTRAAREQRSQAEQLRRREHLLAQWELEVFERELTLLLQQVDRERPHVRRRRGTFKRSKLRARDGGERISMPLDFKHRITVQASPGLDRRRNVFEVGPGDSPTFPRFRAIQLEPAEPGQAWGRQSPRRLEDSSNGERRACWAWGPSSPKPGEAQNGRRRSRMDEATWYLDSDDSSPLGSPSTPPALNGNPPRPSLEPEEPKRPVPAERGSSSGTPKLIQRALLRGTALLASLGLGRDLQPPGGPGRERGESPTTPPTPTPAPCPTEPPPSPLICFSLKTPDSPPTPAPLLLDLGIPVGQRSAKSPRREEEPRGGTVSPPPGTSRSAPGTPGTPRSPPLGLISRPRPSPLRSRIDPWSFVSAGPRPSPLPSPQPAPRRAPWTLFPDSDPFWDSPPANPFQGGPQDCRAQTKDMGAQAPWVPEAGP
Protocol: as §1

TAK1 = TAK1 (Homo sapiens, UniProt O43318); assay: Selectivity screen TAK1; conditions: 1 µM inhibitor, mean
Protocol: as §1

SmMLCK = SmMLCK (Homo sapiens, UniProt Q15746); assay: Selectivity screen SmMLCK; conditions: 1 µM inhibitor, mean
Protocol: as §1

SIK3 = SIK3 (Homo sapiens, UniProt Q9Y2K2); assay: Selectivity screen SIK3; conditions: 1 µM inhibitor, mean
Chain of SIK3 (Q9Y2K2 whole entry): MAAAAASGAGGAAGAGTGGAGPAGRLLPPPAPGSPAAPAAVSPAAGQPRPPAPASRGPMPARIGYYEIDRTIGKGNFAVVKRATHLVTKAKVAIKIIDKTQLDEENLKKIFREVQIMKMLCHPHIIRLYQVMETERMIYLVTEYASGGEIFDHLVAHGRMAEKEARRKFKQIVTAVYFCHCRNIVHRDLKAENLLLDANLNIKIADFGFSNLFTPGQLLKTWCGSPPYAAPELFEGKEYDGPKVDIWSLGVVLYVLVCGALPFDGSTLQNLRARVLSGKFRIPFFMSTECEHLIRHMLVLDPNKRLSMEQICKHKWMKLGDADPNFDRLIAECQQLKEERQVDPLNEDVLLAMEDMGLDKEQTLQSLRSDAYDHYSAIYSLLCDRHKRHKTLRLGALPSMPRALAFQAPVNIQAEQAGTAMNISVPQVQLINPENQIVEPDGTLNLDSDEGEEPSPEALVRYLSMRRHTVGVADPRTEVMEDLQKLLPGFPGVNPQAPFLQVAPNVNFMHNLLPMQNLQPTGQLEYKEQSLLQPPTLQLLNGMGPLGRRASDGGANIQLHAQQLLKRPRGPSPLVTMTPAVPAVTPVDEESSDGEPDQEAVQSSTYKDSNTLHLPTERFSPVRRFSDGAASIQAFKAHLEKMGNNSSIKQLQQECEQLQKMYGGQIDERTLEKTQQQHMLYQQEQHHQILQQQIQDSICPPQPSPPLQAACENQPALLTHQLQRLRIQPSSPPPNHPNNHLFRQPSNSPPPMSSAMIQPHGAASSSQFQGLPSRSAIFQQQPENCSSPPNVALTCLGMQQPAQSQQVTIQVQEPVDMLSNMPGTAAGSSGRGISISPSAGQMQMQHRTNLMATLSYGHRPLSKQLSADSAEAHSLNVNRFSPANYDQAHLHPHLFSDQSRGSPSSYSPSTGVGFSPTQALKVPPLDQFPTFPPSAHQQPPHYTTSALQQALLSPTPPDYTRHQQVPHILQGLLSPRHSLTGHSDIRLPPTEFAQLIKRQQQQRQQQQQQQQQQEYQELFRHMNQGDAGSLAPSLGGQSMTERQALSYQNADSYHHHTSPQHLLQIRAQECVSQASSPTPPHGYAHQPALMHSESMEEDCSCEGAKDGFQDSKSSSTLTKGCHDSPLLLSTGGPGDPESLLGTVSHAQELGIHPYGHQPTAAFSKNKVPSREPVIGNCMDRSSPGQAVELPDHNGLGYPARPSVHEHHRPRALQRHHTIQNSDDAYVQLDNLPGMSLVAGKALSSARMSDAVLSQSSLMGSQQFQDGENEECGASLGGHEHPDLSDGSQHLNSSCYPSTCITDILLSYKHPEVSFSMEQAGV
Protocol: as §1

BRK = BRK (Homo sapiens, UniProt Q13882); assay: Selectivity screen BRK; conditions: 1 µM inhibitor, mean
LKB1 = LKB1 (Homo sapiens, UniProt Q15831); assay: Selectivity screen LKB1; conditions: 1 µM inhibitor, mean
Protocol: as §1

NUAK1 = NUAK1 (Homo sapiens, UniProt O60285); assay: Selectivity screen NUAK1; conditions: 1 µM inhibitor, mean
Protocol: as §1

ULK2 = ULK2 (Homo sapiens, UniProt Q8IYT8); assay: Selectivity screen ULK2; conditions: 1 µM inhibitor, mean
Protocol: as §1

MEKK1 = MEKK1 (Homo sapiens, UniProt Q13233); assay: Selectivity screen MEKK1; conditions: 1 µM inhibitor, mean
Protocol: as §1

CK1γ2 = CK1γ2 (Homo sapiens, UniProt P78368); assay: Selectivity screen CK1γ2; conditions: 1 µM inhibitor, mean
Protocol: as §1

PDK1 = PDK1 (Homo sapiens, UniProt O15530); assay: Selectivity screen PDK1; conditions: 1 µM inhibitor, mean
Protocol: as §1

p38d MAPK = p38d MAPK (Homo sapiens, UniProt O15264); assay: Selectivity screen p38d MAPK; conditions: 1 µM inhibitor, mean
Protocol: as §1

p38g MAPK = p38g MAPK (Homo sapiens, UniProt P53778); assay: Selectivity screen p38g MAPK; conditions: 1 µM inhibitor, mean
Chain of p38g MAPK (P53778 whole entry): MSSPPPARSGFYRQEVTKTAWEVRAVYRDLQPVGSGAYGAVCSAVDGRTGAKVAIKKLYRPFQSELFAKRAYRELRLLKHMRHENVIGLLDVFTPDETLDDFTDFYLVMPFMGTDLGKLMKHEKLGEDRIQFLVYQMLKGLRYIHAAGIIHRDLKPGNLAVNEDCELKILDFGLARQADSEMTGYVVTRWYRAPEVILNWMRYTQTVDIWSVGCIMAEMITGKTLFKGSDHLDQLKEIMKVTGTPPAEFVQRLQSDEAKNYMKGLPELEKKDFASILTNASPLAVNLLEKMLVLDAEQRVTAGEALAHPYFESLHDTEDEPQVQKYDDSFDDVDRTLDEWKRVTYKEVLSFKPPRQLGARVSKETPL
Protocol: as §1

TIE2 = TIE2 (Homo sapiens, UniProt Q02763); assay: Selectivity screen TIE2; conditions: 1 µM inhibitor, mean
Chain of TIE2 (Q02763 23-1124): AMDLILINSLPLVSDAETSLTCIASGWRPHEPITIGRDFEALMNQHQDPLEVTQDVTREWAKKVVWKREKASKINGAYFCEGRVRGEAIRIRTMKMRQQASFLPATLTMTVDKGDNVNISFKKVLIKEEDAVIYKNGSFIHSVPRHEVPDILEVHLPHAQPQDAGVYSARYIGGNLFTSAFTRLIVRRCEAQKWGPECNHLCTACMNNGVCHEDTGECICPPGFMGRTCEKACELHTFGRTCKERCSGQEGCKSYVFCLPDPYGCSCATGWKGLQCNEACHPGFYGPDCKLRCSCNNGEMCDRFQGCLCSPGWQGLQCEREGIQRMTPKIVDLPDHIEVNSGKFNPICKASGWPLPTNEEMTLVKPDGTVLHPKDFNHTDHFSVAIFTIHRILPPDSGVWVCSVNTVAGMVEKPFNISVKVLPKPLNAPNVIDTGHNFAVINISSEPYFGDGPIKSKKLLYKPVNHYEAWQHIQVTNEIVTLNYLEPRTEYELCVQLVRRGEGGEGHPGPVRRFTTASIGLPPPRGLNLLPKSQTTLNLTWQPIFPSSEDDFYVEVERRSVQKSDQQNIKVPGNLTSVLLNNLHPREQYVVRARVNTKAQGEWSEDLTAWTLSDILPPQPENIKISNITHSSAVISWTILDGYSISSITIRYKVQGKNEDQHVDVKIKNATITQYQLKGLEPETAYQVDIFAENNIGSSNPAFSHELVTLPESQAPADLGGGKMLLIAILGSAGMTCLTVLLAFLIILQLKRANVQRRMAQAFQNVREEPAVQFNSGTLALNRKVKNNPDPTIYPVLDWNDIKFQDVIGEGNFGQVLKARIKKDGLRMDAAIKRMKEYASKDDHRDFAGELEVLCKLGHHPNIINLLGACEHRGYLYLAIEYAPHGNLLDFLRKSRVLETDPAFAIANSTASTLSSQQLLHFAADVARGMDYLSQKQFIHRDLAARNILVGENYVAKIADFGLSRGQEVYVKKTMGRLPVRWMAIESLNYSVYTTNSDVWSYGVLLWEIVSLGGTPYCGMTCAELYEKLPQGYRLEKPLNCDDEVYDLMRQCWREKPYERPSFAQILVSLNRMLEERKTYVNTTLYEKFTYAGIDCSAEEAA
Protocol: as §1

NEK6 = NEK6 (Homo sapiens, UniProt Q9HC98); assay: Selectivity screen NEK6; conditions: 1 µM inhibitor, mean
Protocol: as §1

EPH-B2 = EPH-B2 (Homo sapiens, UniProt P29323); assay: Selectivity screen EPH-B2; conditions: 1 µM inhibitor, mean
Protocol: as §1

panel of 139 kinases = assay: In vitro selectivity screen, whole panel; conditions: 1 μM, panel of 139 kinases in vitro
Protocol: as §1

GSK3b = GSK3b (Homo sapiens, UniProt P49841); assay: Selectivity screen GSK3b; conditions: 1 µM inhibitor, mean
Protocol: as §1

CHK1 = CHK1 (Homo sapiens, UniProt O14757); assay: Selectivity screen CHK1; conditions: 1 µM inhibitor, mean
Protocol: as §1

PLK1 = PLK1 (Homo sapiens, UniProt P53350); assay: Selectivity screen PLK1; conditions: 1 µM inhibitor, mean
Chain of PLK1 (P53350 whole entry): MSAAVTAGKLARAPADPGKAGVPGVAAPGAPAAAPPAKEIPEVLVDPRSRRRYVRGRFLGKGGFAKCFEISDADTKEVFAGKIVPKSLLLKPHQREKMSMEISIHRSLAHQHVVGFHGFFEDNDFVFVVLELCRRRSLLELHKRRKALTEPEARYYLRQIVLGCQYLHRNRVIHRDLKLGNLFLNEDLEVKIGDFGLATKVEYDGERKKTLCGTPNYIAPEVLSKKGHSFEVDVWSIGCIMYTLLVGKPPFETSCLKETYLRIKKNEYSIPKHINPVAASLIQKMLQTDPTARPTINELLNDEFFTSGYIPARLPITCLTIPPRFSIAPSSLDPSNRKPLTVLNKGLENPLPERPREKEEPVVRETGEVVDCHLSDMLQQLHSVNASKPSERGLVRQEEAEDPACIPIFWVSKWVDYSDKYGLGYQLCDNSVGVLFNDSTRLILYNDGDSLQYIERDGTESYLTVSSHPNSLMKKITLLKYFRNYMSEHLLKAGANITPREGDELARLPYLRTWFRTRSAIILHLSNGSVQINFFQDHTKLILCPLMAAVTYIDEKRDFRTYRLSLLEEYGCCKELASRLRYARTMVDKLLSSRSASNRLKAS
Protocol: as §1

GCK = GCK (Homo sapiens, UniProt Q12851); assay: Selectivity screen GCK; conditions: 1 µM inhibitor, mean
Protocol: as §1

PAK5 = PAK5 (Homo sapiens, UniProt Q9P286); assay: Selectivity screen PAK5; conditions: 1 µM inhibitor, mean
Protocol: as §1

ERK8 = ERK8 (Homo sapiens, UniProt Q8TD08); assay: Selectivity screen ERK8; conditions: 1 µM inhibitor, mean
Protocol: as §1

PHK = assay: Selectivity screen PHK; conditions: 1 µM inhibitor, mean
Protocol: as §1

Lck = Lck (Homo sapiens, UniProt P06239); assay: Selectivity screen Lck; conditions: 1 µM inhibitor, mean
Protocol: as §1

BTK = BTK (Homo sapiens, UniProt Q06187); assay: Selectivity screen BTK; conditions: 1 µM inhibitor, mean
MKK6 = MKK6 (Homo sapiens, UniProt P52564); assay: Selectivity screen MKK6; conditions: 1 µM inhibitor, mean
Protocol: as §1

TTBK2 = TTBK2 (Homo sapiens, UniProt Q6IQ55); assay: Selectivity screen TTBK2; conditions: 1 µM inhibitor, mean
Protocol: as §1

CSK = CSK (Homo sapiens, UniProt P41240); assay: Selectivity screen CSK; conditions: 1 µM inhibitor, mean
Protocol: as §1

PKCγ = PKCγ (Homo sapiens, UniProt P05129); assay: Selectivity screen PKCγ; conditions: 1 µM inhibitor, mean
Protocol: as §1

IR = IR (Homo sapiens, UniProt P06213); assay: Selectivity screen IR; conditions: 1 µM inhibitor, mean
Protocol: as §1

MSK1 = MSK1 (Homo sapiens, UniProt O75582); assay: Selectivity screen MSK1; conditions: 1 µM inhibitor, mean
Chain of MSK1 (O75582 whole entry): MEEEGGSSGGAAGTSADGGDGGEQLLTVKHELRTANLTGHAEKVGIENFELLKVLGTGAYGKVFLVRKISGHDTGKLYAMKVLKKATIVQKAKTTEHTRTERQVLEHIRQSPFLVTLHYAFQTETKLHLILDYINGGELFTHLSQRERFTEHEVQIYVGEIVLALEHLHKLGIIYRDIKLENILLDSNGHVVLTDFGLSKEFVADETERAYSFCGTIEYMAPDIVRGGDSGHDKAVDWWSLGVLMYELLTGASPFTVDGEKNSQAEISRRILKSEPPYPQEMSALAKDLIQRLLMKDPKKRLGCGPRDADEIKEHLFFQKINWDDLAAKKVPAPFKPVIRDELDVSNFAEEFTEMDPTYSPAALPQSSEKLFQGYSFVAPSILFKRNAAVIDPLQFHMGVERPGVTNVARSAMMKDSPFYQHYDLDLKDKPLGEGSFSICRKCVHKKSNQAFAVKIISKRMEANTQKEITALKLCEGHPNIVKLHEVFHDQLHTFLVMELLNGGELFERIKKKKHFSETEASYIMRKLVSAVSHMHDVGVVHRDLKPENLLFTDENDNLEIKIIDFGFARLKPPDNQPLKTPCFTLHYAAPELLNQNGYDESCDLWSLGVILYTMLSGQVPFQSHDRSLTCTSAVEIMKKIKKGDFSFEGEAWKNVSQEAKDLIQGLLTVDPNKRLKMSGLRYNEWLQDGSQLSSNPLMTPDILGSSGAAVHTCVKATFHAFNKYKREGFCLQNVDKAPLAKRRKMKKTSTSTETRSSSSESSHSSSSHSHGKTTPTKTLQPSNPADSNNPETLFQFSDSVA
Protocol: as §1

JNK2 = JNK2 (Homo sapiens, UniProt P45984); assay: Selectivity screen JNK2; conditions: 1 µM inhibitor, mean
Protocol: as §1

DYRK1A = DYRK1A (Homo sapiens, UniProt Q13627); assay: Selectivity screen DYRK1A; conditions: 1 µM inhibitor, mean
Protocol: as §1

Compound | activity remaining in the presence of the inhibitor: MST3 (MST3) | activity remaining in the presence of the inhibitor: IRAK1 (IRAK1) | activity remaining in the presence of the inhibitor: DYRK3 (DYRK3) | activity remaining in the presence of the inhibitor: MLK1 (MLK1) | activity remaining in the presence of the inhibitor: MLK3 (MLK3) | activity remaining in the presence of the inhibitor: TAK1 (TAK1) | activity remaining in the presence of the inhibitor: SmMLCK (SmMLCK) | activity remaining in the presence of the inhibitor: SIK3 (SIK3) | activity remaining in the presence of the inhibitor: BRK (BRK) | activity remaining in the presence of the inhibitor: LKB1 (LKB1) | activity remaining in the presence of the inhibitor: NUAK1 (NUAK1) | activity remaining in the presence of the inhibitor: ULK2 (ULK2) | activity remaining in the presence of the inhibitor: MEKK1 (MEKK1) | activity remaining in the presence of the inhibitor: CK1γ2 (CK1γ2) | activity remaining in the presence of the inhibitor: PDK1 (PDK1) | activity remaining in the presence of the inhibitor: p38d MAPK (p38d MAPK) | activity remaining in the presence of the inhibitor: p38g MAPK (p38g MAPK) | activity remaining in the presence of the inhibitor: TIE2 (TIE2) | activity remaining in the presence of the inhibitor: NEK6 (NEK6) | activity remaining in the presence of the inhibitor: EPH-B2 (EPH-B2) | other results
C=CC(=O)Nc1cccc(CNc2nc(Nc3ccc(N4CCN(C)CC4)cc3OC)ncc2Cl)c1 [TL6-144] | 99 | 81 | 95 | 20 | 31 | 77 | 62 | 89 | 94 | 91 | 4 | 63 | 95 | 82 | 101 | 94 | 88 | 87 | 97 | 96 | number of other kinases inhibited by more than 80% (panel of 139 kinases): 4; activity remaining in the presence of the inhibitor: GSK3b (GSK3b): 87; activity remaining in the presence of the inhibitor: CHK1 (CHK1): 93; activity remaining in the presence of the inhibitor: PLK1 (PLK1): 107; activity remaining in the presence of the inhibitor: GCK (GCK): 92; activity remaining in the presence of the inhibitor: PAK5 (PAK5): 94; activity remaining in the presence of the inhibitor: ERK8 (ERK8): 90; activity remaining in the presence of the inhibitor: PHK (PHK): 40; activity remaining in the presence of the inhibitor: Lck (Lck): 77; activity remaining in the presence of the inhibitor: BTK (BTK): 37; activity remaining in the presence of the inhibitor: MKK6 (MKK6): 104; activity remaining in the presence of the inhibitor: TTBK2 (TTBK2): 94; activity remaining in the presence of the inhibitor: CSK (CSK): 113; activity remaining in the presence of the inhibitor: PKCγ (PKCγ): 111; activity remaining in the presence of the inhibitor: IR (IR): 11; activity remaining in the presence of the inhibitor: MSK1 (MSK1): 86; activity remaining in the presence of the inhibitor: JNK2 (JNK2): 98; activity remaining in the presence of the inhibitor: DYRK1A (DYRK1A): 90
C=CC(=O)Nc1cccc(CNc2nc(Nc3ccc(N4CCOCC4)cc3)ncc2Cl)c1 [TL8-52] | 97 | 54 | 95 | 3 | 3 | 39 | 98 | 59 | 94 | 132 | 3 | 92 | 103 | 96 | 86 | 93 | 93 | 116 | 103 | 81 | number of other kinases inhibited by more than 80% (panel of 139 kinases): 8; activity remaining in the presence of the inhibitor: GSK3b (GSK3b): 118; activity remaining in the presence of the inhibitor: CHK1 (CHK1): 91; activity remaining in the presence of the inhibitor: PLK1 (PLK1): 114; activity remaining in the presence of the inhibitor: GCK (GCK): 21; activity remaining in the presence of the inhibitor: PAK5 (PAK5): 90; activity remaining in the presence of the inhibitor: ERK8 (ERK8): 65; activity remaining in the presence of the inhibitor: PHK (PHK): 78; activity remaining in the presence of the inhibitor: Lck (Lck): 73; activity remaining in the presence of the inhibitor: BTK (BTK): 44; activity remaining in the presence of the inhibitor: MKK6 (MKK6): 105; activity remaining in the presence of the inhibitor: TTBK2 (TTBK2): 106; activity remaining in the presence of the inhibitor: CSK (CSK): 73; activity remaining in the presence of the inhibitor: PKCγ (PKCγ): 109; activity remaining in the presence of the inhibitor: IR (IR): 15; activity remaining in the presence of the inhibitor: MSK1 (MSK1): 54; activity remaining in the presence of the inhibitor: JNK2 (JNK2): 95; activity remaining in the presence of the inhibitor: DYRK1A (DYRK1A): 100
